According to ChEMBL document CHEMBL6121062, “Discovery, Optimization, and Preclinical Pharmacology of EP652, a METTL3 Inhibitor with Efficacy in Liquid and Solid Tumor Models” (J Med Chem, 2025):
The source made the active and inactive calls. The calls are words filed in the database; no cut-off is given here.

How the values were obtained:
METTL3/METTL14 [1] = biological target: T1, METTL3/METTL14 (Homo sapiens, UniProt Q86U44); experiment: (§1) Inhibition of METTL3/METTL14-mediated m6A mRNA expression in human SK-OV-3 cells incubated for 24 hrs by LC-MS/MS analysis; assay type: cell-based
[2] = biological target: T2, METTL3/METTL14 (Homo sapiens) (UniProt Q86U44+Q9HCE5); experiment: as §1; assay type: cell-based
NCI-H1650 = experiment: Growth inhibition of human NCI-H1650 cells spheroid model; assay type: functional, cell-based
Cytochrome P450 2C9 = Cytochrome P450 2C9 (Homo sapiens, UniProt P11712); experiment: Inhibition of CYP2C9 (unknown origin); assay type: ADME
[3] = Unbound fraction in Sprague-Dawley rat plasma at 1 mg/kg/day, iv measured for 24 hrs by LC-MS/MS analysis; assay type: ADME, organism-based; conditions: in vivo
A549 [4] = experiment: Antitumor activity against human A549 cells xenografted in NSG mouse assessed as prolongation of animal survival at 30 mg/kg, ip qd treated for 50 days; assay type: functional, organism-based; conditions: time 50.0 day
Cytochrome P450 2D6 = Cytochrome P450 2D6 (Homo sapiens, UniProt P10635); experiment: Inhibition of CYP2D6 (unknown origin); assay type: ADME
[5] = Toxicity in NSG mouse xenografted with human FaDu cells assessed as body weight gain at 30 mg/kg, ip qd treated for 20 days; assay type: organism-based; conditions: in vivo, 480 h, time 20 day
MV4-11 [6] = experiment: Induction of apoptosis in human MV4-11 cells incubated for 48 hrs by Caspase-Glo 3/7 assay; assay type: functional, cell-based
[7] = Half life in rat liver microsomes; assay type: ADME, Microsome
MV4-11 [8] = experiment: Antitumor activity against human MV4-11 cells expressing Luc-mCh-Puro xenografted in NSG mouse administered intraperitoneally once daily measured after 19 days by bioluminescence imaging analysis; conditions: dose 10-30 mg/kg, route ip, time 19.0 day
[9] = Unbound AUC in Sprague-Dawley rat at 1 mg/kg/day, iv measured for 24 hrs by LC-MS/MS analysis; assay type: ADME, organism-based; conditions: in vivo
[10] = Stability in rat hepatocytes assessed as half life; assay type: ADME, cell-based, Hepatocyte
HepG2 = experiment: Cytotoxicity against human HepG2 cells assessed as cell viability at 50 uM relative to control; assay type: functional; conditions: read-out: Activity
SK-OV-3 [11] = experiment: Antitumor activity against human SK-OV-3 cells xenografted in NSG mouse assessed as tumor growth inhibition at 30 mg/kg, ip qd treated for 52 days by bioluminescence imaging analysis; assay type: functional, organism-based; conditions: time 52.0 day
MV4-11 [12] = experiment: Antitumor activity against human MV4-11 cells expressing Luc-mCh-Puro xenografted in NSG mouse assessed as decrease in hCD45+ cells in blood at 30 mg/kg, ip qd measured after 28 days by flow cytometry; assay type: functional, organism-based; conditions: time 28.0 day
METTL3/METTL14 [13] = biological target: T1, METTL3/METTL14; experiment: Displacement of [3H]-SAM from METTL3/METTL14 (unknown origin) using 5'biotinylated-UACACUCGAUCUGGACUAAAGGUGCUC-3' RNA as substrate preincubated for 10 mins followed by substrate/[3H]-SAM addition measured after 90 mins by SPA; assay type: protein-complex assay
A549 [14] = experiment: Antiproliferative activity against human A549 cells assessed as inhibition of cell viability incubated for 72 hrs by ATPlite assay; assay type: functional, cell-based; conditions: A549, 72 h
[15] = Toxicity in NSG mouse xenografted with human A549 cells assessed as macroscopic adverse events at 30 mg/kg, ip qd treated for 50 days; assay type: organism-based; conditions: in vivo, 1200 h, time 50 day
[16] = Unbound clearance in Sprague-Dawley rat at 1 mg/kg/day, iv measured for 24 hrs by LC-MS/MS analysis; assay type: ADME, organism-based; conditions: in vivo
FaDu [17] = experiment: Antitumor activity against human FaDu cells xenografted in NSG mouse assessed as prolongation of animal survival at 30 mg/kg, ip qd treated for 20 days; assay type: functional, organism-based; conditions: time 20.0 day
METTL3/METTL14 [18] = biological target: T1, METTL3/METTL14; experiment: (§2) Inhibition of METTL3/METTL14-mediated m6A mRNA expression in human Calu-6 cells incubated for 24 hrs by LC-MS/MS analysis; assay type: cell-based
[19] = biological target: T2, METTL3/METTL14 (Homo sapiens); experiment: as §2; assay type: cell-based
MV4-11 [20] = experiment: Antitumor activity against human MV4-11 cells expressing Luc-mCh-Puro xenografted in NSG mouse assessed as inhibition of cancer progression at 30 mg/kg, ip qd treated for 31 days measured upto 40 days by bioluminescence imaging analysis; assay type: functional, organism-based; conditions: time <= 40.0 day
[21] = In vivo inhibition of METTL3/METTL14-mediated m6A mRNA expression in PBMC of rat at 0.3 mg/kg, ip relative to control; assay type: functional
FaDu [22] = experiment: Antitumor activity against human FaDu cells xenografted in NSG mouse assessed as tumor growth inhibition at 30 mg/kg, ip qd treated for 20 days; assay type: functional, organism-based; conditions: time 20.0 day
METTL3/METTL14 [23] = biological target: T1, METTL3/METTL14; experiment: (§3) Inhibition of METTL3/METTL14-mediated m6A mRNA expression in human A549 cells incubated for 24 hrs by LC-MS/MS analysis; assay type: cell-based
[24] = biological target: T2, METTL3/METTL14 (Homo sapiens); experiment: as §3; assay type: cell-based
SK-OV-3 [25] = experiment: Antiproliferative activity against human SK-OV-3 cells assessed as inhibition of cell viability incubated for 72 hrs by ATPlite assay; assay type: functional, cell-based; conditions: SK-OV-3, 72 h
METTL3/METTL14 [26] = biological target: T1, METTL3/METTL14; experiment: (§4) Inhibition of METTL3/METTL14-mediated m6A mRNA expression in human MV4-11 cells incubated for 24 hrs by LC-MS/MS analysis; assay type: cell-based
[27] = biological target: T2, METTL3/METTL14 (Homo sapiens); experiment: as §4; assay type: cell-based
MV4-11 [28] = experiment: Antitumor activity against human MV4-11 cells expressing Luc-mCh-Puro xenografted in NSG mouse assessed as decrease in hCD45+ cells in bone marrow at 30 mg/kg, ip qd measured after 28 days by flow cytometry; assay type: functional, organism-based; conditions: time 28.0 day
MV4-11 [29] = experiment: Antitumor activity against human MV4-11 cells expressing Luc-mCh-Puro xenografted in NSG mouse assessed as decrease in hCD45+ cells in spleen at 30 mg/kg, ip qd measured after 28 days by flow cytometry; assay type: functional, organism-based; conditions: time 28.0 day
SK-OV-3 [30] = experiment: Antitumor activity against human SK-OV-3 cells xenografted in NSG mouse assessed as prolongation of animal survival at 30 mg/kg, ip qd treated for 83 days; assay type: functional, organism-based; conditions: time 83.0 day
FaDu [31] = experiment: Antiproliferative activity against human FaDu cells assessed as inhibition of cell viability incubated for 72 hrs by ATPlite assay; assay type: functional, cell-based

T1 sequence (Q86U44 whole entry): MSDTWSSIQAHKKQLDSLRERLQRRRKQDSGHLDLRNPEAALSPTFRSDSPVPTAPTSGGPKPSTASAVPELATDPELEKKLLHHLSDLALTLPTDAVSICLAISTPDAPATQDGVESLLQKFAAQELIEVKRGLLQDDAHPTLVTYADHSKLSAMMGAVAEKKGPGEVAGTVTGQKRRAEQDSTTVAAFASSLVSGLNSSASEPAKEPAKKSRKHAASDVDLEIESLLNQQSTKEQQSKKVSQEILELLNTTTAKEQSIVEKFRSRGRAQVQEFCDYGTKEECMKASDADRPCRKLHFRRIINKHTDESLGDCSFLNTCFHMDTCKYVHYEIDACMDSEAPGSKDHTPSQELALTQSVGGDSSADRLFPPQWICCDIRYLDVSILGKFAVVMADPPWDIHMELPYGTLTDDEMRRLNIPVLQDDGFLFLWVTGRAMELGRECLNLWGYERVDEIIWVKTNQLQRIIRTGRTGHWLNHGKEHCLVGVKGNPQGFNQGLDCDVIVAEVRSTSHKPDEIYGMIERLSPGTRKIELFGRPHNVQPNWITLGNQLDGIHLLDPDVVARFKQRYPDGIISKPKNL
T1 sequence (Q9HCE5 whole entry, further chain): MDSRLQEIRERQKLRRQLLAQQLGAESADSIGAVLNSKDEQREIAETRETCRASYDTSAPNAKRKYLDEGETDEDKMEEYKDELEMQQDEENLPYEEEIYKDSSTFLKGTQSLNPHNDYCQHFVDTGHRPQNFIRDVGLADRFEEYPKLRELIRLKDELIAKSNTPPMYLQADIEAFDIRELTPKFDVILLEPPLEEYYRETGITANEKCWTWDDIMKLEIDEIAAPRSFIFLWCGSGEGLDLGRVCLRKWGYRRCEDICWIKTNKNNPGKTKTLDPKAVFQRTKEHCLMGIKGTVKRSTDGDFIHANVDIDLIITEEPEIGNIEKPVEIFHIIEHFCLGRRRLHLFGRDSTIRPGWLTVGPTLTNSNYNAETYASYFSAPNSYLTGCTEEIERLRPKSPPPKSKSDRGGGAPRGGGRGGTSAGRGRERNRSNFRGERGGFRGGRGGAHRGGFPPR
Cytochrome P450 2C9, sequence (P11712 whole entry): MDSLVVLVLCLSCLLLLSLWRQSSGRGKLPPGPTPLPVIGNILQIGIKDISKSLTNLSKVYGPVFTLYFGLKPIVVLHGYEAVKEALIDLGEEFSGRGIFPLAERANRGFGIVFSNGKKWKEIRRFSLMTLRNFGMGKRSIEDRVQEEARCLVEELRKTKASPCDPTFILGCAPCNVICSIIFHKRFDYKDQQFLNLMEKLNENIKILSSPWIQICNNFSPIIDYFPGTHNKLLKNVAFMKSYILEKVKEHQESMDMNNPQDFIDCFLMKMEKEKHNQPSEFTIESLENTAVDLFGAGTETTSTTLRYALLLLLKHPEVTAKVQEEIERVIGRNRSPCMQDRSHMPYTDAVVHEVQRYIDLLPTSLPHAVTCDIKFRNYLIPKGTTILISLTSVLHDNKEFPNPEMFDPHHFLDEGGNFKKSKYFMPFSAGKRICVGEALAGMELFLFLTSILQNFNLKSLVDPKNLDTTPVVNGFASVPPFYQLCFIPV
Cytochrome P450 2D6, sequence (P10635 whole entry): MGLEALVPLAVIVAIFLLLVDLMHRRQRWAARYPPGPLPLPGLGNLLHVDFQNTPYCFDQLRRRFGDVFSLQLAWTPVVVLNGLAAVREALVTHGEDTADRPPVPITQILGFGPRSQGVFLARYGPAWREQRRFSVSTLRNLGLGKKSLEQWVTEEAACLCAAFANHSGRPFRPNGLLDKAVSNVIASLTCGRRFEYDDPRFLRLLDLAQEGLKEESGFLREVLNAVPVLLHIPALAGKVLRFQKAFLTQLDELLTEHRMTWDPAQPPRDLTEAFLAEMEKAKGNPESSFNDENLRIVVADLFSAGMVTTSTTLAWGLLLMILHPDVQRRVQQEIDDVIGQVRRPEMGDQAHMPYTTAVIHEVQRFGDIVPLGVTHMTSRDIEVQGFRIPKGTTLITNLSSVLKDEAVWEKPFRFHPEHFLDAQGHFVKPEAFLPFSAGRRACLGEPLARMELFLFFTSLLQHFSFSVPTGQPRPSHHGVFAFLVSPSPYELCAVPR

- IC50 (METTL3/METTL14 [1]): 3 nM
- inhibition [2]: Dose-dependent-effect
- IC50 (NCI-H1650): 99 nM
- IC50 (Cytochrome P450 2C9): > 100000 nM
- Fu [3]: 23%
- IC50 (Cytochrome P450 2D6): > 100000 nM
- half-life [7]: 1.52 h
- fAUC [9]: 5.1 µM·min
- half-life [10]: > 4 h
- IC50 (METTL3/METTL14 [13]): 2 nM
- IC50 (A549 [14]): 169 nM
- CL free [16]: 358 mL/min/kg
- IC50 (METTL3/METTL14 [18]): 9 nM
- inhibition [19]: Dose-dependent-effect
- IC50 (METTL3/METTL14 [23]): 7 nM
- inhibition [24]: Dose-dependent-effect
- IC50 (SK-OV-3 [25]): 11 nM
- IC50 (METTL3/METTL14 [26]): 5 nM
- inhibition [27]: Dose-dependent-effect
SMILES: C[C@@H](n1cc(-c2cncc(N(C)C)c2)nn1)n1ccc(N2CCC[C@@H](NCC3CC3)C2)cc1=O
- Activity (A549 [4]): Active
- Activity [5]: Non-toxic
- Activity (MV4-11 [6]): Active
- Activity (MV4-11 [8]): Dose-dependent-effect
- viability at 50 µM (HepG2): 90.3%
- inhibition (SK-OV-3 [11]): Active
- Activity (MV4-11 [12]): Active
- Activity [15]: Non-toxic
- Activity (FaDu [17]): Active
- inhibition (MV4-11 [20]): Active
- Emax at 0.3 mg/kg [21]: ~75%
- inhibition (FaDu [22]): Active
- Activity (MV4-11 [28]): Active
- Activity (MV4-11 [29]): Active
- Activity (SK-OV-3 [30]): Active
- IC50 (FaDu [31]): 50 nM
